Reference: PubChem BioAssay (NCI)
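96-well plates; 48 h exposure; 5 concentrations. Endpoints by linear interpolation between flanking doses. Not reached: highest tested concentration assigned. The concentration for full growth arrest is given as TGI.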

Tests used:
Assay in all cases: inhibition of tumour cell growth, NCI panel, 48 h
[1] = test system: 786-0 renal
[2] = test system: A498 renal
[3] = test system: A549 NSCLC
[4] = test system: ACHN renal
[5] = test system: BT-549 breast
[6] = test system: CAKI-1 renal
[7] = test system: CCRF-CEM leukemia
[8] = test system: COLO 205 colon
[9] = test system: DU-145 prostate
[10] = test system: EKVX NSCLC
[11] = test system: HCC-2998 colon
[12] = test system: HCT-116 colon
[13] = test system: HCT-15 colon
[14] = test system: HL-60(TB) leukemia
[15] = test system: HOP-92 NSCLC
[16] = test system: HS 578T breast
[17] = test system: HT29 colon
[18] = test system: IGROV1 ovarian
[19] = test system: K-562 leukemia
[20] = test system: KM12 colon
[21] = test system: LOX IMVI melanoma
[22] = test system: M14 melanoma
[23] = test system: MALME-3M melanoma
[24] = test system: MCF7 breast
[25] = test system: MDA-MB-231 breast
[26] = test system: MDA-MB-435
[27] = test system: MDA-N
[28] = test system: MOLT-4 leukemia
[29] = test system: NCI-H226 lung
[30] = test system: NCI-H23 lung
[31] = test system: NCI-H460 lung
[32] = test system: NCI-H522 lung
[33] = test system: NCI/ADR-RES ovarian
[34] = test system: OVCAR-3 ovarian
[35] = test system: OVCAR-4 ovarian
[36] = test system: OVCAR-5 ovarian
[37] = test system: OVCAR-8 ovarian
[38] = test system: PC-3 prostate
[39] = test system: RPMI-8226 leukemia
[40] = test system: RXF 393 renal
[41] = test system: SF-268 CNS
[42] = test system: SF-295 CNS
[43] = test system: SF-539 CNS
[44] = test system: SK-MEL-2 melanoma
[45] = test system: SK-MEL-28 melanoma
[46] = test system: SK-MEL-5 melanoma
[47] = test system: SK-OV-3 ovarian
[48] = test system: SN12C renal
[49] = test system: SNB-19 CNS
[50] = test system: SNB-75 CNS
[51] = test system: SR leukemia
[52] = test system: SW-620 colon
[53] = test system: T-47D breast
[54] = test system: TK-10 renal
[55] = test system: U251 CNS
[56] = test system: UACC-257 melanoma
[57] = test system: UACC-62 melanoma
[58] = test system: UO-31 renal
[59] = test system: HOP-62 NSCLC

## O=S1SC(=S)C2C=CC=CC21 (stereo not given)
[1]
  TGI: > 100 µM
[2]
  TGI: > 100 µM
[3]
  TGI: > 100 µM
[4]
  TGI: > 100 µM
[5]
  TGI: > 100 µM
[6]
  TGI: > 100 µM
[7]
  TGI: 39 µM
[8]
  TGI: > 100 µM
[9]
  TGI: > 100 µM
[10]
  TGI: > 100 µM
[11]
  TGI: > 100 µM
[12]
  TGI: > 100 µM
[13]
  TGI: > 100 µM
[14]
  TGI: > 100 µM
[15]
  TGI: > 100 µM
[16]
  TGI: > 100 µM
[17]
  TGI: > 100 µM
[18]
  TGI: > 100 µM
[19]
  TGI: > 100 µM
[20]
  TGI: > 100 µM
[21]
  TGI: > 100 µM
[22]
  TGI: > 100 µM
[23]
  TGI: > 100 µM
[24]
  TGI: > 100 µM
[25]
  TGI: > 100 µM
[26]
  TGI: > 100 µM
[27]
  TGI: > 100 µM
[28]
  TGI: > 100 µM
[29]
  TGI: > 100 µM
[30]
  TGI: > 100 µM
[31]
  TGI: > 100 µM
[32]
  TGI: > 100 µM
[33]
  TGI: > 100 µM
[34]
  TGI: > 100 µM
[35]
  TGI: > 100 µM
[36]
  TGI: > 100 µM
[37]
  TGI: > 100 µM
[38]
  TGI: > 100 µM
[39]
  TGI: > 100 µM
[40]
  TGI: > 100 µM
[41]
  TGI: > 100 µM
[42]
  TGI: > 100 µM
[43]
  TGI: > 100 µM
[44]
  TGI: > 100 µM
[45]
  TGI: > 100 µM
[46]
  TGI: > 100 µM
[47]
  TGI: > 100 µM
[48]
  TGI: > 100 µM
[49]
  TGI: > 100 µM
[50]
  TGI: > 100 µM
[51]
  TGI: > 100 µM
[52]
  TGI: > 100 µM
[53]
  TGI: > 100 µM
[54]
  TGI: > 100 µM
[55]
  TGI: > 100 µM
[56]
  TGI: > 100 µM
[57]
  TGI: > 100 µM
[58]
  TGI: > 100 µM

## C[n+]1c(/C=C/c2ccc(O)c3ncccc23)[se]c2ccccc21
[1]
  TGI: 24.4 µM
[2]
  TGI: 30.5 µM
[3]
  TGI: 42 µM
[4]
  TGI: 8.54 µM
[5]
  TGI: 35 µM
[6]
  TGI: 26 µM
[7]
  TGI: 4.22 µM
[8]
  TGI: 22.2 µM
[9]
  TGI: 16.8 µM
[10]
  TGI: 28 µM
[12]
  TGI: 11.4 µM
[13]
  TGI: 17.6 µM
[14]
  TGI: 7.66 µM
[59]
  TGI: 19.1 µM
[15]
  TGI: 22.3 µM
[16]
  TGI: 63.5 µM
[17]
  TGI: 20.7 µM
[18]
  TGI: > 37.8 µM
[19]
  TGI: 44.4 µM
[20]
  TGI: 25.2 µM
[21]
  TGI: 9.08 µM
[22]
  TGI: 17.8 µM
[23]
  TGI: 20.3 µM
[24]
  TGI: 14.8 µM
[25]
  TGI: 8.33 µM
[26]
  TGI: 28.4 µM
[27]
  TGI: 25.4 µM
[28]
  TGI: > 22.7 µM
[29]
  TGI: 30.5 µM
[30]
  TGI: 37.6 µM
[31]
  TGI: 9.34 µM
[32]
  TGI: 24.8 µM
[33]
  TGI: 28.7 µM
[34]
  TGI: 4.5 µM
[35]
  TGI: > 47 µM
[36]
  TGI: 40.4 µM
[37]
  TGI: 29.8 µM
[38]
  TGI: 12.7 µM
[39]
  TGI: 40.5 µM
[40]
  TGI: 37.8 µM
[41]
  TGI: 27.6 µM
[42]
  TGI: 25.1 µM
[43]
  TGI: 21.3 µM
[44]
  TGI: 18.3 µM
[45]
  TGI: 52.9 µM
[46]
  TGI: 26.5 µM
[47]
  TGI: 23.4 µM
[48]
  TGI: 16.1 µM
[49]
  TGI: 51.3 µM
[50]
  TGI: 34.8 µM
[51]
  TGI: > 21.9 µM
[52]
  TGI: > 100 µM
[53]
  TGI: > 41.8 µM
[54]
  TGI: 10.9 µM
[55]
  TGI: 16.3 µM
[56]
  TGI: 11.1 µM
[57]
  TGI: 18.3 µM
[58]
  TGI: 18.3 µM

## Nc1nc(Nc2ccccc2)sc1C(=O)c1ccco1
[1]
  TGI: 31.7 µM
[2]
  TGI: 39.6 µM
[3]
  TGI: 43.2 µM
[4]
  TGI: 62.2 µM
[5]
  TGI: 54.3 µM
[7]
  TGI: 17.1 µM
[8]
  TGI: 27.8 µM
[9]
  TGI: 40.8 µM
[10]
  TGI: 38.7 µM
[12]
  TGI: 36.7 µM
[13]
  TGI: 50.9 µM
[14]
  TGI: 36.1 µM
[59]
  TGI: 67.8 µM
[15]
  TGI: 82.6 µM
[16]
  TGI: 40.8 µM
[17]
  TGI: 41.9 µM
[18]
  TGI: 60.7 µM
[19]
  TGI: 57.7 µM
[20]
  TGI: 23.5 µM
[21]
  TGI: 42.8 µM
[22]
  TGI: 36.9 µM
[23]
  TGI: 57.1 µM
[24]
  TGI: 26.3 µM
[25]
  TGI: 97.7 µM
[26]
  TGI: 31.5 µM
[27]
  TGI: 33.9 µM
[28]
  TGI: 35.7 µM
[29]
  TGI: 55.3 µM
[30]
  TGI: 35.9 µM
[31]
  TGI: 28 µM
[33]
  TGI: 65.5 µM
[34]
  TGI: 31.5 µM
[35]
  TGI: 50.5 µM
[36]
  TGI: 71.5 µM
[38]
  TGI: > 100 µM
[39]
  TGI: 42.2 µM
[40]
  TGI: 30.8 µM
[41]
  TGI: > 100 µM
[43]
  TGI: 33.3 µM
[44]
  TGI: 36.7 µM
[45]
  TGI: 67.1 µM
[46]
  TGI: 23.2 µM
[47]
  TGI: 93.6 µM
[48]
  TGI: 39.5 µM
[49]
  TGI: 50.9 µM
[50]
  TGI: 37.7 µM
[51]
  TGI: 25.2 µM
[52]
  TGI: 67.4 µM
[53]
  TGI: 41.4 µM
[54]
  TGI: 35.9 µM
[55]
  TGI: > 100 µM
[56]
  TGI: 68.9 µM
[57]
  TGI: 40.1 µM
[58]
  TGI: 30.2 µM
